{"source": "PubChem BioAssay (NCI)", "experiment_in_all_cases": "inhibition of tumour cell growth, NCI panel, 48 h", "key": {"786-0 renal": {"system": "786-0 renal"}, "A498 renal": {"system": "A498 renal"}, "A549 NSCLC": {"system": "A549 NSCLC"}, "ACHN renal": {"system": "ACHN renal"}, "CAKI-1 renal": {"system": "CAKI-1 renal"}, "CCRF-CEM leukemia": {"system": "CCRF-CEM leukemia"}, "COLO 205 colon": {"system": "COLO 205 colon"}, "DLD-1 colon": {"system": "DLD-1 colon"}, "DMS 114 small cell lung": {"system": "DMS 114 small cell lung"}, "DMS 273 small cell lung": {"system": "DMS 273 small cell lung"}, "HCC-2998 colon": {"system": "HCC-2998 colon"}, "HCT-116 colon": {"system": "HCT-116 colon"}, "HCT-15 colon": {"system": "HCT-15 colon"}, "HL-60(TB) leukemia": {"system": "HL-60(TB) leukemia"}, "HOP-18 NSCLC": {"system": "HOP-18 NSCLC"}, "HOP-62 NSCLC": {"system": "HOP-62 NSCLC"}, "HOP-92 NSCLC": {"system": "HOP-92 NSCLC"}, "HT29 colon": {"system": "HT29 colon"}, "IGROV1 ovarian": {"system": "IGROV1 ovarian"}, "K-562 leukemia": {"system": "K-562 leukemia"}, "KM12 colon": {"system": "KM12 colon"}, "KM20L2 colon": {"system": "KM20L2 colon"}, "LOX IMVI melanoma": {"system": "LOX IMVI melanoma"}, "M14 melanoma": {"system": "M14 melanoma"}, "M19-MEL melanoma": {"system": "M19-MEL melanoma"}, "MALME-3M melanoma": {"system": "MALME-3M melanoma"}, "NCI-H226 lung": {"system": "NCI-H226 lung"}, "NCI-H23 lung": {"system": "NCI-H23 lung"}, "NCI-H460 lung": {"system": "NCI-H460 lung"}, "NCI-H522 lung": {"system": "NCI-H522 lung"}, "OVCAR-3 ovarian": {"system": "OVCAR-3 ovarian"}, "OVCAR-4 ovarian": {"system": "OVCAR-4 ovarian"}, "OVCAR-5 ovarian": {"system": "OVCAR-5 ovarian"}, "OVCAR-8 ovarian": {"system": "OVCAR-8 ovarian"}, "SF-268 CNS": {"system": "SF-268 CNS"}, "SF-295 CNS": {"system": "SF-295 CNS"}, "SF-539 CNS": {"system": "SF-539 CNS"}, "SK-MEL-2 melanoma": {"system": "SK-MEL-2 melanoma"}, "SK-MEL-28 melanoma": {"system": "SK-MEL-28 melanoma"}, "SK-MEL-5 melanoma": {"system": "SK-MEL-5 melanoma"}, "SK-OV-3 ovarian": {"system": "SK-OV-3 ovarian"}, "SN12C renal": {"system": "SN12C renal"}, "SNB-19 CNS": {"system": "SNB-19 CNS"}, "SNB-75 CNS": {"system": "SNB-75 CNS"}, "SNB-78 CNS": {"system": "SNB-78 CNS"}, "SR leukemia": {"system": "SR leukemia"}, "SW-620 colon": {"system": "SW-620 colon"}, "TK-10 renal": {"system": "TK-10 renal"}, "U251 CNS": {"system": "U251 CNS"}, "UACC-257 melanoma": {"system": "UACC-257 melanoma"}, "UACC-62 melanoma": {"system": "UACC-62 melanoma"}, "XF 498 CNS": {"system": "XF 498 CNS"}}, "note": "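Exposure lasted 48 hours, with cells grown in 96-well plates and compounds tested at five concentrations. TGI: total growth inhibition.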", "data": [{"smiles": "Clc1ccc(C[P+](c2ccccc2)(c2ccccc2)c2ccccc2)cc1Cl", "values": [{"measurement": "TGI", "setting": "786-0 renal", "result": 17, "unit": "µM"}, {"measurement": "TGI", "setting": "A498 renal", "result": 27, "unit": "µM"}, {"measurement": "TGI", "setting": "A549 NSCLC", "result": 19.9, "unit": "µM"}, {"measurement": "TGI", "setting": "ACHN renal", "result": 31.2, "unit": "µM"}, {"measurement": "TGI", "setting": "CAKI-1 renal", "result": 11, "unit": "µM"}, {"measurement": "TGI", "setting": "CCRF-CEM leukemia", "result": 28.3, "unit": "µM"}, {"measurement": "TGI", "setting": "COLO 205 colon", "result": 2.95, "unit": "µM"}, {"measurement": "TGI", "setting": "DLD-1 colon", "result": 21.5, "unit": "µM"}, {"measurement": "TGI", "setting": "DMS 114 small cell lung", "result": 5.95, "unit": "µM"}, {"measurement": "TGI", "setting": "DMS 273 small cell lung", "result": 7.58, "unit": "µM"}, {"measurement": "TGI", "setting": "HCC-2998 colon", "result": 11.2, "unit": "µM"}, {"measurement": "TGI", "setting": "HCT-116 colon", "result": 10.8, "unit": "µM"}, {"measurement": "TGI", "setting": "HCT-15 colon", "result": 44.5, "unit": "µM"}, {"measurement": "TGI", "setting": "HL-60(TB) leukemia", "result": 14.9, "unit": "µM"}, {"measurement": "TGI", "setting": "HOP-18 NSCLC", "result": 11, "unit": "µM"}, {"measurement": "TGI", "setting": "HOP-62 NSCLC", "result": 21.2, "unit": "µM"}, {"measurement": "TGI", "setting": "HOP-92 NSCLC", "result": 6.02, "unit": "µM"}, {"measurement": "TGI", "setting": "HT29 colon", "result": 11.9, "unit": "µM"}, {"measurement": "TGI", "setting": "IGROV1 ovarian", "result": 14.6, "unit": "µM"}, {"measurement": "TGI", "setting": "K-562 leukemia", "result": "> 100", "unit": "µM"}, {"measurement": "TGI", "setting": "KM12 colon", "result": 11.3, "unit": "µM"}, {"measurement": "TGI", "setting": "KM20L2 colon", "result": 13.7, "unit": "µM"}, {"measurement": "TGI", "setting": "LOX IMVI melanoma", "result": 11.7, "unit": "µM"}, {"measurement": "TGI", "setting": "M14 melanoma", "result": 12.5, "unit": "µM"}, {"measurement": "TGI", "setting": "M19-MEL melanoma", "result": 5.32, "unit": "µM"}, {"measurement": "TGI", "setting": "MALME-3M melanoma", "result": 7.8, "unit": "µM"}, {"measurement": "TGI", "setting": "NCI-H226 lung", "result": 13.1, "unit": "µM"}, {"measurement": "TGI", "setting": "NCI-H23 lung", "result": 10.4, "unit": "µM"}, {"measurement": "TGI", "setting": "NCI-H460 lung", "result": 12.8, "unit": "µM"}, {"measurement": "TGI", "setting": "NCI-H522 lung", "result": 10.3, "unit": "µM"}, {"measurement": "TGI", "setting": "OVCAR-3 ovarian", "result": 6.74, "unit": "µM"}, {"measurement": "TGI", "setting": "OVCAR-4 ovarian", "result": 19.5, "unit": "µM"}, {"measurement": "TGI", "setting": "OVCAR-5 ovarian", "result": 19.2, "unit": "µM"}, {"measurement": "TGI", "setting": "OVCAR-8 ovarian", "result": 12.4, "unit": "µM"}, {"measurement": "TGI", "setting": "SF-268 CNS", "result": 11.3, "unit": "µM"}, {"measurement": "TGI", "setting": "SF-295 CNS", "result": 22.2, "unit": "µM"}, {"measurement": "TGI", "setting": "SF-539 CNS", "result": 14.5, "unit": "µM"}, {"measurement": "TGI", "setting": "SK-MEL-2 melanoma", "result": 6.4, "unit": "µM"}, {"measurement": "TGI", "setting": "SK-MEL-28 melanoma", "result": 11.4, "unit": "µM"}, {"measurement": "TGI", "setting": "SK-MEL-5 melanoma", "result": 2.78, "unit": "µM"}, {"measurement": "TGI", "setting": "SK-OV-3 ovarian", "result": 20.8, "unit": "µM"}, {"measurement": "TGI", "setting": "SN12C renal", "result": 15.3, "unit": "µM"}, {"measurement": "TGI", "setting": "SNB-19 CNS", "result": 10.6, "unit": "µM"}, {"measurement": "TGI", "setting": "SNB-75 CNS", "result": 5.1, "unit": "µM"}, {"measurement": "TGI", "setting": "SNB-78 CNS", "result": 42.8, "unit": "µM"}, {"measurement": "TGI", "setting": "SR leukemia", "result": "> 100", "unit": "µM"}, {"measurement": "TGI", "setting": "SW-620 colon", "result": 12.7, "unit": "µM"}, {"measurement": "TGI", "setting": "TK-10 renal", "result": 17.6, "unit": "µM"}, {"measurement": "TGI", "setting": "U251 CNS", "result": 10.6, "unit": "µM"}, {"measurement": "TGI", "setting": "UACC-257 melanoma", "result": 8.32, "unit": "µM"}, {"measurement": "TGI", "setting": "UACC-62 melanoma", "result": 9.33, "unit": "µM"}, {"measurement": "TGI", "setting": "XF 498 CNS", "result": 3.24, "unit": "µM"}]}]}
